Experimental data published in US6300347A, “2-substituted 4,5-diaryl imidazoles” (Novartis AG, priority 1997, dated 2001).

Columns and labels:
[1] = system: TNF-α release from hPBMCs; test: Assay for Inhibition of TNF-α release from hPBMCs; format: cell-based; details: Homo sapiens, 3 h, IFNg (100 U/ml) and LPS, three hours, TNF-α by ELISA, read-out: IC50, suppression of TNF release
Description: Human peripheral blood mononuclear cells (hPBMCs) are prepared from the peripheral blood of healthy volunteers using ficoll-hypaque density separation accordinc to the method of Hansel et al., J. Imm. […] Cells are incubated with serial dilutions of the test compounds for 30 minutes at 37° C. prior to the addition of IFNg (100 U/ml) and LPS (5 mg/ml) and subsequently further incubated for three hours. Incubation is terminated by centrifugation at 1400 RPM for 10 min. TNF-α in the supernatant is measured using a commercial ELISA (Innotest hTNFa, available from Innogenetics N.V., Zwijnaarde, Belium). Agents of the Invention are tested at concentrations of from 0 to 10 mM.

TNF-α = test: Assay for Inhibition of TNF-α Production in LPS Stimulated Mice; format: in vivo; details: LPS 20 mg/kg i.v.; OF1 mice (female); plasma TNF 1 hour after LPS
Description: Assay for Inhibition of TNF-α Production in LPS Stimulated Mice
Injection of lipopolysaccharide (LPS) induces a rapid release of soluble tumour necrosis factor (TNF-α) into the periphery. This model is be used to analyse prospective blockers of TNF release in vivo.
LPS (20 mg/kg) is injected i.v. into OF1 mice (female, 8 week old). One (1) hour later blood is withdrawn from the animals and TNF levels are analysed in the plasma by an ELISA method using an antibody to TNF-α. […] Compounds to be evaluated are given either orally or s.c. 1 to 4 hours prior to the LPS injection. Inhibition of LPS-induced TNF-release is taken as the readout.

p38 MAP kinase = target: T1, p38 MAP kinase (Mus musculus, UniProt P47811); test: p38 MAP kinase Assay (GST-ATF-2 phosphorylation, His-p38 MAP kinase); format: biochemical, murine; details: ATP 120 μM; substrate GST-ATF-2; 1 h at 37° C; read-out: IC50 for p38 MAP kinase inhibition
T1 construct: full length murine p38 MAP kinase; His tag; made in house; host or cells: E. coli
T1 sequence (P47811 whole entry): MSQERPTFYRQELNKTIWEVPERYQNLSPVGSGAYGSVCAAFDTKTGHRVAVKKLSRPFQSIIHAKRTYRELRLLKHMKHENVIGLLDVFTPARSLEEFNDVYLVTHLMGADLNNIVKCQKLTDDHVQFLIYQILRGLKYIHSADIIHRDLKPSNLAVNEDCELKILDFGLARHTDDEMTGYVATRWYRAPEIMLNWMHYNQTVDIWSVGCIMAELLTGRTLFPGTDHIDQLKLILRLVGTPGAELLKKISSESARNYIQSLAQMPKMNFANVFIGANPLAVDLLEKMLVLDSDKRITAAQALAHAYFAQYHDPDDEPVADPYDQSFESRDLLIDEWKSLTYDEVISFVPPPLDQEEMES
Description: The substrate (GST-ATF-2; a fusion protein comprising amino acids 1-109 of ATF-2 and the GST protein obtained by expression in E. coli) is coated onto the wells of microtiter plates (50 μl/well; 1 μg/ml in PBS/0.02% Na azide) overnight at 4° C. The following day, the microtiter plates are washed four times with PBS/0.5% Tween 20/0.02% Na azide and are blocked with PBS/2% BSA/0.02% Na Azide for 1 h at 37° C. Plates are washed again 4 times with PBS/0.5% Tween 20/0.02% Na azide. The kinase cascade reaction is then started by adding the following reactants in 10 μl aliquots to a final reaction volume of 50 μl.
1. Agents of the Invention titrated from 10 to 0.001 μM in 10-fold dilutions or solvent (DMSO) or H2 O.
2. Kinase buffer (5×); pH 7.4; 125 mM Hepes (Stock at 1M; Gibco #15630-056). […]
After 1 h at 37° C. the kinase reaction is terminated by washing the plates four times as previously described. Phosphorylated GST-ATF-2 is then detected by adding: […]
After step 1,2 and 3 the microtiter plates are washed four times with PBS/0.5% Tween 20/0.02% Na azide. After step 4, the plates are read in a Bio-Rad microplate reader in a dual wavelength mode (measurement filter 405 nm and reference filter 490 nm). The background value (without ATP) is subtracted and IC50 values are calculated using the Origin computer program (4 parameter logistic function).

IC50 [1]: ~90 nM
IC50 (p38 MAP kinase): ~10 nM
Structure (SMILES): Nc1nc(N)c(F)c(-c2nc(-c3ccc(F)cc3)c(-c3ccncc3)[nH]2)c1F [Example 17, 4-(4-Fluorophenyl)-5-(4-pyridyl) 2-(2,6-diamino-3,5-difluoropyridinyl)imidazole]
inhibition of TNF production (TNF-α): about 80%
